Measured values reported in ChEMBL document CHEMBL3886176, “TSH receptor antagonizing tetrahydroquinoline compounds” (2015).

Target: Thyrotropin receptor (Homo sapiens, UniProt P16473)
Format: functional, cell-based, CHO

Thyrotropin receptor, sequence (P16473 whole entry): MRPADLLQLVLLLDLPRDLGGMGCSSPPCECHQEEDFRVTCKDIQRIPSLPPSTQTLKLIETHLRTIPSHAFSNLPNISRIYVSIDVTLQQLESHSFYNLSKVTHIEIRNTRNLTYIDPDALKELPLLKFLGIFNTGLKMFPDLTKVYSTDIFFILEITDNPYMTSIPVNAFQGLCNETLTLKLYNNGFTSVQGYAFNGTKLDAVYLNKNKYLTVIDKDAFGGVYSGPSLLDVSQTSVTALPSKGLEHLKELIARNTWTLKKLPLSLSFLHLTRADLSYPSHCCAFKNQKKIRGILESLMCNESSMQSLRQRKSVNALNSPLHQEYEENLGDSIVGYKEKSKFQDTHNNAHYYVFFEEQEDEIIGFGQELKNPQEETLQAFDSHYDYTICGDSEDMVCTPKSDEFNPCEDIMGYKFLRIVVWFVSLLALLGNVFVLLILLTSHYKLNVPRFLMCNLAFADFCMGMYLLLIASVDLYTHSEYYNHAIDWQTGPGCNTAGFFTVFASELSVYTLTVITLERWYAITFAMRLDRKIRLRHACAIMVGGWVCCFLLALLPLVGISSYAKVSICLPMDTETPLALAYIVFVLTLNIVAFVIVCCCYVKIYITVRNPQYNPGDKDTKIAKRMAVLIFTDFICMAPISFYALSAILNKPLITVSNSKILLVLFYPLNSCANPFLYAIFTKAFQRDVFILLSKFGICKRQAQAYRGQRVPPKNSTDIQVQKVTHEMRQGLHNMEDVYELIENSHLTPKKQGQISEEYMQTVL

CC(=O)N1CCC(C)(c2ccccc2)c2cc(NC(=O)c3ccc(Br)s3)ccc21 (stereo unspecified)
IC50: < 100 nM
